Assay in all cases: AK assay 384-well format, Prestwick library screening
Experiment [1] deals with E. coli. It is filed as cell-based, Escherichia coli. The following applies: Escherichia coli, 3 h, 50 μM final drug concentration.
Experiment [2] concerns S. aureus strain USA300-0114. It is filed as cell-based, Staphylococcus aureus. The following applies: Staphylococcus aureus, USA300, 3 h, 50 μM final drug concentration.
In experiment [3] the test system is K. pneumoniae. It is filed as cell-based, Klebsiella pneumoniae. The following applies: Klebsiella pneumoniae, 3 h, 50 μM final drug concentration.
Experiment [4] has as its system E. faecium. It is filed as cell-based, Enterococcus faecium. The following applies: Enterococcus faecium, 3 h, 50 μM final drug concentration.
In experiment [5] the test system is P. aeruginosa. It is filed as cell-based, Pseudomonas aeruginosa. The following applies: Pseudomonas aeruginosa, 3 h, 50 μM final drug concentration.
The test system of experiment [6] is A. baumannii strain 98-37-09. It is filed as cell-based, Acinetobacter baumannii. The following applies: Acinetobacter baumannii, 983709, 3 h, 50 μM final drug concentration.
The test system of experiment [7] is E. cloacae. It is filed as cell-based, Enterobacter cloacae. The following applies: Enterobacter cloacae, 3 h, 50 μM final drug concentration.
Setting [8] is: planktonic S. aureus, cutoff for positive-scoring molecules 3-fold increase, read-out: AK-based Prestwick Library Screening Results, S. aureus (increase in extracellular AK activity).
[9] abbreviates: planktonic K. pneumoniae, cutoff for positive-scoring molecules 3-fold increase, read-out: AK-based Prestwick Library Screening Results, K. pneumoniae (increase in extracellular AK activity).
Setting [10] is: planktonic E. faecium, cutoff for positive-scoring molecules 3-fold increase, read-out: AK-based Prestwick Library Screening Results, E. faecium (increase in extracellular AK activity).
[11] abbreviates: planktonic P. aeruginosa, cutoff for positive-scoring molecules 3-fold increase, read-out: AK-based Prestwick Library Screening Results, P. aeruginosa (increase in extracellular AK activity).
Where [12] appears, read: planktonic A. baumannii, cutoff for positive-scoring molecules 3-fold increase, read-out: AK-based Prestwick Library Screening Results, A. baumannii (increase in extracellular AK activity).
The mark [13] stands for this setting: planktonic E. cloacae, cutoff for positive-scoring molecules 3-fold increase, read-out: AK-based Prestwick Library Screening Results, E. cloacae (increase in extracellular AK activity).
Setting [14] is: planktonic E. coli, […], read-out: AK-based Prestwick Library Screening Results, E. coli (increase in extracellular AK activity).

Here are results for seven compounds from patent publication US10004701B2, “Methods and compositions for treating infection” (UNIVERSITY OF ROCHESTER, priority 2012, dated 2018).

Structures are written as SMILES. Where a name gives a salt, the structure may show the parent alone. Read-outs that look alike come from different tables or passages of the source.

With `O=C(COc1ccc(Cl)cc1)N1CCN(Cc2ccc3c(c2)OCO3)CC1` [Fipexide hydrochloride], the fold induction at 50 µM is 1.3 in experiment [1] (planktonic E. coli, 384-well, cutoff for positive-scoring molecules 3-fold increase, read-out: AK-based Prestwick Library Screening Results: E. coli (increase in extracellular AK activity)); 0.9 in experiment [2] (planktonic S. aureus, 384-well, cutoff for positive-scoring molecules 3-fold increase, read-out: AK-based Prestwick Library Screening Results: S. aureus (increase in extracellular AK activity)); 1.1 in experiment [3] (planktonic K. pneumoniae, 384-well, cutoff for positive-scoring molecules 3-fold increase, read-out: AK-based Prestwick Library Screening Results: K. pneumoniae (increase in extracellular AK activity)); 1.1 in experiment [4] (planktonic E. faecium, 384-well, cutoff for positive-scoring molecules 3-fold increase, read-out: AK-based Prestwick Library Screening Results: E. faecium (increase in extracellular AK activity)); 1 in experiment [5] (planktonic P. aeruginosa, 384-well, cutoff for positive-scoring molecules 3-fold increase, read-out: AK-based Prestwick Library Screening Results: P. aeruginosa (increase in extracellular AK activity)); 1 in experiment [6] (planktonic A. baumannii, 384-well, cutoff for positive-scoring molecules 3-fold increase, read-out: AK-based Prestwick Library Screening Results: A. baumannii (increase in extracellular AK activity)). Further, the fold induction at 50 µM in experiment [7] (planktonic E. cloacae, 384-well, cutoff for positive-scoring molecules 3-fold increase, read-out: AK-based Prestwick Library Screening Results: E. cloacae (increase in extracellular AK activity)) came to 1.3.
Consider `CCCCOc1ccc(C(=O)CCN2CCCCC2)cc1` [Dyclonine hydrochloride], for which the fold induction at 50 µM turned out to be 1 in experiment [1] (384-well format, cutoff for positive-scoring molecules 3-fold increase, read-out: AK-based Prestwick Library Screening Results, E. coli (increase in extracellular AK activity)); 0.9 in experiment [2] (384-well format, cutoff for positive-scoring molecules 3-fold increase, read-out: AK-based Prestwick Library Screening Results, S. aureus (increase in extracellular AK activity)); 0.7 in experiment [3] (384-well format, cutoff for positive-scoring molecules 3-fold increase, read-out: AK-based Prestwick Library Screening Results, K. pneumoniae (increase in extracellular AK activity)); 1 in experiment [4] (384-well format, cutoff for positive-scoring molecules 3-fold increase, read-out: AK-based Prestwick Library Screening Results, E. faecium (increase in extracellular AK activity)); 1 in experiment [5] (384-well format, cutoff for positive-scoring molecules 3-fold increase, read-out: AK-based Prestwick Library Screening Results, P. aeruginosa (increase in extracellular AK activity)); 0.9 in experiment [6] (384-well format, cutoff for positive-scoring molecules 3-fold increase, read-out: AK-based Prestwick Library Screening Results, A. baumannii (increase in extracellular AK activity)). Besides, in experiment [7] (384-well format, cutoff for positive-scoring molecules 3-fold increase, read-out: AK-based Prestwick Library Screening Results, E. cloacae (increase in extracellular AK activity)), the fold induction at 50 µM was 1.1.
For `O=C(/C=C/c1ccc(O)c(O)c1)O[C@@H]1C[C@](O)(C(=O)O)C[C@@H](O)[C@H]1O` [Chlorogenic acid], the fold induction at 50 µM in experiment [1] (planktonic E. coli, cutoff for positive-scoring molecules 3-fold increase, read-out: AK-based Prestwick Library Screening Results, E. coli (increase in extracellular AK activity)) amounted to 0.8; in experiment [2] (setting [8]), 0.5; in experiment [3] (setting [9]) it was 0.7; in experiment [4] (setting [10]), 0.9; in experiment [5] (setting [11]) it was 0.7; in experiment [6] (setting [12]), 0.8. Moreover, the fold induction at 50 µM in experiment [7] (setting [13]) was 0.8.
Regarding `COc1ccc2c(c1)[C@]13CCCC[C@@H]1[C@H](C2)N(C)CC3`, the fold induction at 50 µM in experiment [1] (setting [14]) was 0.8; in experiment [2] (planktonic S. aureus, […], read-out: AK-based Prestwick Library Screening Results, S. aureus (increase in extracellular AK activity)) it was 0.7; in experiment [3] (planktonic K. pneumoniae, […], read-out: AK-based Prestwick Library Screening Results, K. pneumoniae (increase in extracellular AK activity)), 0.7; in experiment [4] (planktonic E. faecium, […], read-out: AK-based Prestwick Library Screening Results, E. faecium (increase in extracellular AK activity)), 0.9; in experiment [5] (planktonic P. aeruginosa, […], read-out: AK-based Prestwick Library Screening Results, P. aeruginosa (increase in extracellular AK activity)), 0.8; in experiment [6] (planktonic A. baumannii, […], read-out: AK-based Prestwick Library Screening Results, A. baumannii (increase in extracellular AK activity)), 0.8. The fold induction at 50 µM in experiment [7] (planktonic E. cloacae, […], read-out: AK-based Prestwick Library Screening Results, E. cloacae (increase in extracellular AK activity)) was determined as 1.1.
Take `CN(C)CC/C=C1/c2ccccc2Sc2ccc(Cl)cc21` [Chlorprothixene hydrochloride]: the fold induction at 50 µM in experiment [1] (setting [14]) worked out at 1; in experiment [2] (setting [8]), 0.6; in experiment [3] (setting [9]), 0.8; in experiment [4] (setting [10]) it was 1; in experiment [5] (setting [11]) it was 0.9; in experiment [6] (setting [12]), 1.2. In addition, in experiment [7] (setting [13]), the fold induction at 50 µM came out at 1.
For the compound `Cc1[nH]ccc2c1[nH]c1cc(=O)ccc12` [Harmol hydrochloride monohydrate], the fold induction at 50 µM amounted to 1.4 in experiment [1] (planktonic, […], read-out: AK-based Prestwick Library Screening Results, E. coli (fold increase in extracellular AK activity)); 0.9 in experiment [2] (planktonic, […], read-out: AK-based Prestwick Library Screening Results, S. aureus (fold increase in extracellular AK activity)); 0.9 in experiment [3] (planktonic, […], read-out: AK-based Prestwick Library Screening Results, K. pneumoniae (fold increase in extracellular AK activity)); 1 in experiment [4] (planktonic, […], read-out: AK-based Prestwick Library Screening Results, E. faecium (fold increase in extracellular AK activity)); 1.1 in experiment [5] (planktonic, […], read-out: AK-based Prestwick Library Screening Results, P. aeruginosa (fold increase in extracellular AK activity)); 1.1 in experiment [6] (planktonic, […], read-out: AK-based Prestwick Library Screening Results, A. baumannii (fold increase in extracellular AK activity)). For the same compound, the fold induction at 50 µM in experiment [7] (planktonic, […], read-out: AK-based Prestwick Library Screening Results, E. cloacae (fold increase in extracellular AK activity)) came to 1.6.
As for `CN1CCN(CCCN2c3ccccc3Sc3ccc(Cl)cc32)CC1` [Prochlorperazine dimaleate], the fold induction at 50 µM in experiment [1] (planktonic, cutoff for positive 3-fold increase, read-out: AK-based Prestwick Library Screening Results, E. coli (fold increase in extracellular AK activity)) was 1.2; in experiment [2] (planktonic, cutoff for positive 3-fold increase, read-out: AK-based Prestwick Library Screening Results, S. aureus (fold increase in extracellular AK activity)), 1.1; in experiment [3] (planktonic, cutoff for positive 3-fold increase, read-out: AK-based Prestwick Library Screening Results, K. pneumoniae (fold increase in extracellular AK activity)) it was 1.2; in experiment [4] (planktonic, cutoff for positive 3-fold increase, read-out: AK-based Prestwick Library Screening Results, E. faecium (fold increase in extracellular AK activity)), 1.1; in experiment [5] (planktonic, cutoff for positive 3-fold increase, read-out: AK-based Prestwick Library Screening Results, P. aeruginosa (fold increase in extracellular AK activity)) it was 1.2; in experiment [6] (planktonic, cutoff for positive 3-fold increase, read-out: AK-based Prestwick Library Screening Results, A. baumannii (fold increase in extracellular AK activity)), 1.6. Moreover, the fold induction at 50 µM in experiment [7] (planktonic, cutoff for positive 3-fold increase, read-out: AK-based Prestwick Library Screening Results, E. cloacae (fold increase in extracellular AK activity)) worked out at 2.
